In paper PMC7112612 (The Journal of Infection, 2013):
Values after ≈ are worked out from the molar mass of the structure shown. Values joined by “and” are separate entries in the source; they are usually repeats but may differ in a detail not shown here. Identical values can stand only once. “Also recorded” adds a separate entry of the source. Counter-ions that a name gives are not always drawn. Like-named read-outs stand apart in the source and are kept apart here.

Tests used:
[1] = tested on: influenza A/WSN/1933 (H1N1) virus; assay: microbe, parasite or virus in culture; assay type: cell-based; conditions: for EC50: Influenza A virus, H1N1|WSN, MDCK
[2] = tested on: MDCK cells; conditions: dog
[3] = in vivo, cited from earlier work
[4] = tested on: MERS-CoV; assay: microbe, parasite or virus in culture; assay type: cell-based
[5] = tested on: MERS-CoV; assay type: cell-based
[6] = tested on: SARS-CoV; conditions: mouse, in vivo; cited from earlier work
[7] = tested on: MERS-CoV; assay type: cell-based; remark: listed apart in the source
[8] = in vitro; conditions: African green monkey
[9] = tested on: uninfected MDCK cells; conditions: cited from earlier work
[10] = tested on: Vero cells
[11] = Middle East respiratory syndrome-related coronavirus, Vero

For `NC12CC3CC(CC(C3)C1)C2` [Amantadine], the “Result of chemical library screening” value [1] was “not identified”.

In the case of `CC[C@H]1CN2CCc3cc(OC)c(OC)cc3[C@@H]2C[C@@H]1C[C@H]1NCCc2cc(OC)c(OC)cc21` [Emetine], the “Result of chemical library screening” value [1] is reported as “primary hits with protective results”, the EC50 [1] is reported as 14.7 µM and the TC50 [2] is reported as 17.00 µM.

For `C[C@]12CC[C@@H]3c4ccc(O)cc4CC[C@H]3[C@@H]1CC[C@@H]2O` [Estradiol], the “Result of chemical library screening” value [1] was “primary hits with protective results”, the Selectivity index [1] was 3.00 and the EC50 [1] was 20 µM. For the same molecule, the TC50 [2] was 75.00 µM.

For `O=C(O)c1ccccc1Nc1cccc(C(F)(F)F)c1` [Flufenamic acid], the “Result of chemical library screening” value [1] was “primary hits with protective results”, the Selectivity index [1] was 12.60 and the EC50 [1] was 6.3 µM. For the same molecule, the Serum concentration ([3]; po) was 6–20 [200 mg] μg/ml and the TC50 [2] was 79.16 µM.

For `Cc1ccc(Cl)c(Nc2ccccc2C(=O)O)c1Cl` [Meclofenamate sodium], the “Result of chemical library screening” value [1] was “primary hits with protective results”, the Selectivity index [1] was 2.00 and the EC50 [1] was 45 µM. For the same molecule, the Serum concentration ([3]; po) was 4.8 [100 mg tds] μg/ml and the TC50 [2] was 100.00 µM.

With `Cc1cccc(Nc2ccccc2C(=O)O)c1C` [Mefenamic acid] the “Result of chemical library screening” value [1] was “primary hits with protective results”, the Selectivity index [1] was 4.00 and the EC50 [1] was 50 µM. The Serum concentration ([3]; po) was 10 [1 g] μg/ml and the TC50 [2] was 200.00 µM.

In the case of `Sc1ncnc2nc[nH]c12` [Mercaptopurine], the “Result of chemical library screening” value [1] is reported as “primary hits with protective results”, the Selectivity index [1] is reported as 4.00 and the EC50 [1] is reported as 26.5 µM. For the same molecule, the Serum concentration ([3]; po) was 0.09 [50 mg/m^2] μg/ml and the TC50 [2] was 100.00 µM.

For `COc1c(C)c2c(c(O)c1C/C=C(\C)CCC(=O)OCCN1CCOCC1)C(=O)OC2` [Mycophenolate mofetil], the “average plasma elimination half-life” value ([3]; iv, 1500 mg) is listed as 16.6 h and the “average plasma elimination half-life” value ([3]; po, 1000 mg) is listed as 17.9 h.

With `COc1c(C)c2c(c(O)c1C/C=C(\C)CCC(=O)O)C(=O)OC2` [Mycophenolic acid] the “Result of chemical library screening” value [1] was “primary hits with protective results”, the EC99 [4] was 4.86 ± 0.57 µg/mL and the Selectivity index [4] was greater than 195.12. For the same molecule, the “reduction in viral load” value [4] was greater than 2 log, the EC50 [4, 11] was 0.17 ± 0.03 µg/mL (≈ 0.531 µM) and the EC90 [4, 11] was 2.61 ± 0.34 µg/mL (≈ 8.15 µM). For the same molecule, the “reduction in viral load” value ([4]; at 16 μg/ml) was roughly 4 log, the “anti-MERS-CoV activity at the tested concentrations (in words)” value (shortened to “anti-MERS-CoV activity”) [5] was “showed anti-MERS-CoV activity” and the “concentration at which CPE was completely absent” value [5] was no less than 0.063 µg/mL. For the same molecule, the “efficacy against SARS-CoV in an animal model (in words)” value [6] was “ineffective”, the “concentration achieving 100% plaque reduction” value [7] was 6.4 µg/mL and the CC50 [8] was greater than 32 µg/mL. The TC50 [2] was 170.00 µM.

For `CCc1nc(N)nc(N)c1-c1ccc(Cl)cc1` [Pyrimethamine], the “Result of chemical library screening” value [1] was “primary hits with protective results”, the Selectivity index [1] was 1.80 and the EC50 [1] was 3.1 µM. The Serum concentration ([3]; po) was 0.55 [1500/75 mg of sulfadoxine/pyrimethamine] μg/ml and the TC50 [2] was 5.40 µM.

For `NC(=O)c1ncn([C@@H]2O[C@H](CO)[C@@H](O)[C@H]2O)n1` [Ribavirin], the “Result of chemical library screening” value [1] was “primary hits with protective results”, the Selectivity index [1] was 8.00 and the EC50 [1] was 20 µM. The EC99 [4] was 183.17 ± 11.97 µg/mL, the Selectivity index [4] was greater than 152.98 and the “reduction in viral load” value [4] was greater than 2 log. The EC50 [4, 11] was 9.99 ± 2.97 µg/mL (≈ 40.9 µM), the EC90 [4, 11] was 107 ± 11.2 µg/mL (≈ 438 µM) and the “anti-MERS-CoV activity” value [5] was “showed anti-MERS-CoV activity”. The “concentration inhibiting replication of uninfected MDCK cells” value [9] was no less than 10000 ng/mL, the “concentration achieving 100% plaque reduction” value [7] was 400 µg/mL and the peak concentration ([3]; iv) was “approximately 24 μg/ml”. For the same molecule, the Serum concentration ([3]; po) was 2.2 [4 weeks of 600 mg bd] μg/ml, the CC50 [8] was greater than 1600 µg/mL and the TC50 [2] was 168.00 µM.

In the case of `Cc1c(Cl)cccc1Nc1ccccc1C(=O)O` [Tolfenamic acid], the “Result of chemical library screening” value [1] is reported as “primary hits with protective results”, the Selectivity index [1] is reported as 8.00 and the EC50 [1] is reported as 7.94 µM. For the same molecule, the Serum concentration ([3]; po) was 4.1 [300 mg] μg/ml and the TC50 [2] was 64.00 µM.

For `Cc1cccc(C)c1OCC(=O)N[C@@H](Cc1ccccc1)[C@@H](O)C[C@H](Cc1ccccc1)NC(=O)[C@H](C(C)C)N1CCCNC1=O` [lopinavir], the “anti-MERS-CoV activity” value [5] was “suboptimal EC50; also recorded: not found to be active”.

With `Cc1c(O)cccc1C(=O)N[C@@H](CSc1ccccc1)[C@H](O)CN1C[C@H]2CCCC[C@H]2C[C@H]1C(=O)NC(C)(C)C` [nelfinavir mesylate hydrate] the “anti-MERS-CoV activity” value [5] was “suboptimal EC50”.

B1: Betaferon (protein, UniProt P01574 22-187, looked up, variant C17S)
Interferon beta: MSYNLLGFLQRSSNFQSQKLLWQLNGRLEYCLKDRMNFDIPEEIKQLQQFQKEDAALTIYEMLQNIFAIFRQDSSSTGWNETIVENLLANVYHQINHLKTVLEEKLEKEDFTRGKLMSSLHLKRYYGRILHYLKAKEYSHCAWTIVRVEILRNFYFINRLTGYLRN
modifications: lacks N-terminal Met1
With B1 the EC50 [4] was 17.64 IU/ml and 17.64 ± 1.09 IU/ml, the EC90 [4] was 93.31 ± 10.07 IU/ml and the EC99 [4] was 135.70 ± 15.96 IU/ml. For the same molecule, the “anti-MERS-CoV activity” value [5] was “showed anti-MERS-CoV activity”, the CC50 [10] was 3125 IU/ml and the “maximum percentage of plaque reduction” value [7] was 66.6%. For the same molecule, the plaque reduction [7] was 40–50% and the “mean peak serum concentration” value [3] was 40 IU/ml.

B2: Imukin (protein, UniProt P01579 24-161, looked up)
Interferon gamma: QDPYVKEAENLKKYFNAGHSDVADNGTLFLGILKNWKEESDRKIMQSQIVSFYFKLFKNFKDDQSIQKSVETIKEDMNVKFFNSNKKKRDDFEKLTNYSVTDLNVQRKAIHELIQVMAELSPAAKTGKRKRSQMLFRG
With B2 the “anti-MERS-CoV activity” value [5] was “suboptimal EC50”.
